| melting point [°C] | SMILES |
| --- | --- |
| 192 to 194 | CN(C)CCCC(C(=O)O)c1ccccc1-c1ccccc1 (stereo not drawn) |
| 111 to 113 | CCOCCOc1c(C)cc(Oc2ccc3c(c2)C=C(C(=O)Nc2ccc(CN(C)C4CCOCC4)cc2)CCS3(=O)=O)cc1C |
| 167 to 169 | O=C(O)[C@H](Cc1ccccc1)NS(=O)(=O)c1ccc(N2CCC(c3ccccc3)CC2)cc1 |
| 29.5 to 30.4 | CCCCC[C@H]1CC[C@H](c2nc(Cl)c(OC)c(Cl)n2)CC1 |
| 218 to 220 | Cc1ccccc1CN1CCC(n2c(C)c(-c3ccccc3)[nH]c2=O)CC1 |
| 90 | CC(C)(C)OC(=O)Nc1ccc(Cl)c(C(F)(F)F)c1 |
| 95 to 96 | Cc1c(Br)c(C)c(Cc2ccc(C(C)C)cc2)c2c1CCO2 |
| 216 to 218 | Cc1ccc(C(=O)NC(CC(C)C)C(=O)O)c(SSc2cc(C)ccc2C(=O)NC(CC(C)C)C(=O)O)c1 (stereo not drawn) |
| 243 to 245 | Cc1cc(-c2c(-c3ccc(S(N)(=O)=O)cc3)cnn(-c3ccc(F)c(Cl)c3)c2=O)ccc1F |
| 183 to 187 | COc1cc(OC)nc(NC(=O)NS(=O)(=O)c2ccccc2-c2ccno2)n1 |
| 199 to 200 | N#Cc1ccc(N(Cc2ccc(OS(N)(=O)=O)c(Br)c2)n2cnnc2)cc1-c1cc2ccccc2o1 |
| 134 | COc1ccc(-c2nc(-c3[nH]cc(C)c3C)[nH]c2-c2ccc(OC)cc2)cc1 |
| 153 to 155 | CCCCc1nn(C(C)C(=O)NC)c(=O)n1Cc1ccc(-c2ccccc2-c2nnn[nH]2)cc1 (stereo not drawn) |
| 58 to 62 | O=C(Nc1cccc(OCc2cccnc2)c1)N1CCOCC1 |
| 98 to 100 | O=c1cc(-c2ccccc2F)oc2ccccc12 |
| 185 | COc1cc2c(cc1OC)C(C(COC(=O)Nc1ccccc1)COC(=O)Nc1ccccc1)N(Cc1ccccc1)CC2 (stereo not drawn) |
| 183 to 186 | CCCC(NS(=O)(=O)c1ccc(NC(C)=O)cc1)P(=O)(Oc1ccccc1)Oc1ccccc1 (stereo not drawn) |
| 176 to 179 | O=C1c2ccccc2C(=O)N1c1cccc(Br)c1 |
| 59 to 61 | CC(=O)Oc1ccc([C@@H]2O[C@H]2CO)cc1 |
| 68 to 70 | CCOC(=O)CN(C(=O)N1CCN(c2cc(C)cc(C)c2)CC1)c1cc(C(C)O)c(C)nc1OC (stereo not drawn) |
| 135 to 137 | N#Cc1ccccc1NC(=O)C1CCCCC1 |
| 215 to 217 | COc1ccc2cc3ncc(C#N)c(Nc4ccc(Cl)cc4Cl)c3cc2c1 |
| 164 | CCc1cc(C#N)cc(C(=O)Nc2ccn(C)n2)n1 |

| melting point [°C] | SMILES |
| --- | --- |
| 245 to 247 | Cn1c2c(c3ccccc31)C(=O)C(CNC1=NCCN1)CS2 (stereo not drawn) |
| 69.4 | CC(C)c1c(Cl)nc(Cl)nc1Cl |
| 151 | Fc1ccc(C2NCCc3c2[nH]c2ccccc32)cc1F (stereo not drawn) |
| 89 to 91 | O=C1CCCN1c1ccc2c(c1)OCO2 |
| 149 to 151 | COc1cc2c(cc1OC)C1C(CO)CSC(C=N)N1CC2 (stereo not drawn) |
| 144 to 146 | CC#CCOc1ccc(S(=O)(=O)N(C)C(CCCSc2ccc(Cl)cc2)C(=O)NO)cc1 (stereo not drawn) |
| 178 to 180 | CCOc1cccc(C(C)CC(=O)Nc2sc3c(c2C#N)CCNC3)c1 (racemic) |
| 301 | O=c1[nH]c2ccccc2c(=O)n1CCN1CCC(c2c[nH]c3cc(F)ccc23)CC1 |
| 222 to 225 | Cc1nn(C)c2c1N=C(c1ccc(-n3c(C)nc4cnccc43)cc1)C(C)C(=O)N2C (stereo not drawn) |
| 189 to 190 | CNC(=O)Oc1ccc2c(c1)c1c(n2C)C2(CC1)CCN(C(=O)c1ccccc1)CC2 |
| 196 to 199 | O=C1N(Cc2ccccn2)c2cccc(-c3ccc(Oc4ccccc4)cc3)c2C12COc1cc3c(cc12)OCCO3 (stereo not drawn) |
| 60 to 66 | Cc1cccc(Nc2ncnc3cc(NCCCN(C)C)c(N)cc23)c1 |
| 148 to 152 | Cc1ncsc1C(=O)Nc1cnc(-n2nc(C(F)(F)F)cc2C2CC2)nc1 |
| 234 to 236 | Cc1nnc(-c2cccc(-c3cnc4[nH]cc(C(=O)C5(C)CCCCC5)c4n3)c2)o1 |
| 223 to 224 | CCCCCCCCCCCCn1c2nc(=O)[nH]c(=O)c-2nc2cc(C)c(C)cc21 |
| 188 to 190 | COc1ccc(CN2C(C(=O)Nc3ccccn3)=C(O)c3sc4ccccc4c3S2(=O)=O)cc1 |
| 150 | COC(=O)C(C)(C)N1CCC(N(Cc2ccc(-c3ccc(C(F)(F)F)cc3)cc2)C(=O)Cn2c(CCc3cccc(F)c3F)nc(=O)c3cccnc32)CC1 |
| 210 to 212 | CC(C)(C)c1cc(-c2nn(CC(=O)O)c3ncccc23)cc(C(C)(C)C)c1O |
| 106 | CN(CCCN)CC(O)C(O)C(O)C(O)CO (stereo not drawn) |
| 235 to 236 | O=C(O)c1ccc(Cl)cc1NCc1cccnc1 |
| 110 to 112 | O=C(O)CCn1c(=O)n(CCCCN2CCC(OC(c3ccccc3)c3ccccc3)CC2)c(=O)c2ccccc21 |
| 170 to 172 | CCOC(=O)c1ccc(N=C(Nc2ccc(C(=O)OCC)cc2)c2ccccc2)cc1 |
| 206 to 208 | CC(CN1CC(=O)N(CN2CCSCC2)C(=O)C1)N1CC(=O)NC(=O)C1 (stereo not drawn) |

| melting point [°C] | SMILES |
| --- | --- |
| 128 to 130 | O=C1C(O)=C(C2CCCCC2)C(=O)c2ccccc21 |
| 178 | c1ccc(CN2CCC(=C3c4ccsc4CCn4ccnc43)CC2)cc1 |
| 104 to 106 | COC(=O)c1cc2c(s1)[C@@H](N1CCCCC1=O)[C@H](O)C(C)(C)O2 (relative stereo) |
| 52 to 54 | O=C(CCC(=O)N1CCCCC1)c1ccccc1 |
| 228 to 229 | CCc1nc2c(C)cc(C)nc2n1-c1ccc(CCNC(=O)NS(=O)(=O)c2ccncc2)cc1 |
| 164 to 166 | CCCCc1nc2c(N)nc3c(c2n1CC(C)C)CCNC3 |
| 168 | O=[N+]([O-])c1ccc(N2CCN(CC(O)(Cn3cncn3)c3ccc(Cl)cc3Cl)CC2)cc1 (stereo not drawn) |
| 131 to 132 | CCOC(=O)c1cn(Cc2cccnc2)nc1OCc1ccc(OCc2nc(-c3ccco3)oc2C)c(OC)c1 |
| 340 to 342 | O=c1[nH]c2cc(-c3ccccc3)nnc2c2ccccc12 |
| 69 to 71 | CCc1ncc(CCCO)n1C |
| 80 to 82 | CS(=O)(=O)Nc1cccc(S(F)(F)(F)(F)F)c1 |
| 156 to 158 | CCCCn1c(=O)n(CCC)c(=O)c2c(NC(C)=O)n[nH]c21 |
| 137 to 138 | Cc1nc2cc3c(cc2s1)C1(CO3)C(=O)N(CCC(C)C)c2ccccc21 (stereo not drawn) |
| 288 to 289 | COC(=O)c1c(-c2ccccc2C)c2cc(C)c(C)cc2[nH]c1=O |
| 155 to 159 | Cc1c(Cl)cc(-c2ccc(OC(=O)N3CCOCC3)nn2)cc1Cl |
| 61 | COc1ccc(S(=O)(=O)C(C/C=C(\C)CCC=C(C)C)(Cc2ccc(OCCN3CCOCC3)cc2)C(=O)NO)cc1 (stereo not drawn) |
| 159 to 161 | CC1(C(CCO)C(N)=O)OCCc2c1[nH]c1ccccc21 (stereo not drawn) |
| 108 to 110 | CCOC(=O)c1cc(Cl)n2c(C)nnc2n1 |
| > 250 | Nc1[nH]nc(-c2ccc(F)cc2)c1-c1ccncc1 |
| 234 to 236 | O=C1Nc2ccc(NC(=O)C(=O)N3CCC(Cc4ccccc4)CC3)cc2C1=O |
| 308 | Cc1cc2ccccn2c1C(=O)c1ccc2c(c1)c(=O)c(C(=O)O)cn2C |

| SMILES | melting point [°C] |
| --- | --- |
| CC(Cc1ccc(O)cc1)NCC(O)c1cc2ccccc2o1 (stereo not drawn) | 135 to 138 |
